# According to publication PMC8148468, “Shikimic acid protects skin cells from UV-induced senescence through activation of the NAD+-dependent deacetylase SIRT1” (Aging (Albany NY), 2021):
# Legend:
# Format in all cases: cell-based, human
# [1] = system: H3K9ac (the target of SIRT1, SIRT2 and SIRT6); test: Sirtuin activity assay in HDF: H3K9ac levels (Western blot); settings: HDF treated 24h;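 also: screen looked for decreased acetylation as a sign of sirtuin activation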
# Procedure: Figure 1 (A) Schematic representation of the compound testing for sirtuin activity evaluation in HDF. Cells were treated with or without the compounds for 24h and harvested for analysis. […] (C) Western Blot analysis and (D) quantification of H4K16ac and H3K9ac levels in cells treated with Resveratrol or Shikimic acid at the indicated concentrations. H4K16 and H3K9 levels were normalized to H4 and H3 levels respectively. Student T-test, *p<0.05, **p<0.01, ***p<0.001.
# HDFs were plated in 100x20 mm2 cell culture plates and after 24h, fresh cell culture medium containing the compounds was added. After 24h, cells were detached with cell scrapers, harvested, and processed for qPCR or western blot.
# (§1) Protein levels were analyzed as previously described. Cells were directly lysed in 1x Laemmli Buffer (Bio-Rad, USA), incubated at 95° C and centrifuged. Supernatant was subjected to SDS-polyacrylamide gel electrophoresis, and successive steps were performed as described. The list of antibodies used is included in Supplementary Table 2.
# HDF cells = test: Cell cycle analysis, PI staining flow cytometry
# Procedure: Figure 4 (A) SRB and Trypan blue cell viability assays performed in cells treated with or without Shikimic acid (5, 10, 25 and 50 mM) for 24h. (B) Apoptosis detection using the Annexin V-FITC/PI double staining followed by flow cytometry in non-irradiated and non-treated cells, irradiated and non-treated cells and irradiated cells treated with Shikimic acid (10, 25 and 50 mM). (C) Representation and statistical analysis of the percentage of apoptotic cells in each of the conditions analyzed. (D) Cell cycle analysis using PI staining followed by flow cytometry. (E) Relative p16^INK4a mRNA levels monitored by qPCR in the indicated conditions. Student T-test, *p<0.05. (F) Immunofluorescence of γH2AX in non-irradiated and non-treated cells, irradiated and non-treated cells and irradiated cells treated with Shikimic acid (10, 25 and 50 mM). (G) Principal component analysis (PCA) on Savitzky–Golay second derivatized spectra in the fingerprint region (1800–950 cm−1) for non-irradiated cells (No UVB), irradiated non-treated cells (UVB), irradiated cells treated with Shikimic acid 25 mM (UVB SA) and irradiated cells treated with Shikimic acid 25 mM plus EX-527 1 μM (UVB SA+EX-527). Student T-test, *p<0.05, **p<0.01, ***p<0.001. (H) Beta-sheet to alpha-helix ratio obtained by curve-fitting analysis of the amide I band (1700-1600 cm-1).
# Fluorescence-activated cell sorting (FACS) analyses of the cell cycle and apoptosis were carried out using, respectively, a Propidium Iodide Flow Cytometry Kit (Abcam, UK), and an Annexin V-FITC Apoptosis Staining/Detection Kit (Abcam, UK), following the manufacturer’s instructions.
# Senescence induction by UVB irradiation For the non-irradiation control conditions, HDF were plated at a density of 6×10^4 cells/plate in 6-well
# HDF were plated at a density of 6×10^4 cells/plate in 6- plates. After 24h, culture medium was removed and well plates. After 24h, culture medium was removed replaced by fresh cell culture medium containing the and replaced with fresh cell culture medium containing compounds at different concentrations. […]
# chaperone BiP = test: BiP protein levels (Western blot); settings: UVB-irradiated cells, SA -/+ EX-527 1 μM
# Procedure: Figure 5 (A) Western-blot of BiP proteins levels in UVB or non UVB irradiated cells treated with SA at the indicated concentrations in presence or absence of EX-527 1 μM. (B) Quantification of n=3 experiments as (A). The levels of BiP are normalized by the loading control (histone H3) and represented related to the conditions in UVB irradiated cells in absence of SA and EX-527. Student T-test, *p<0.05. (C) Percentage of SA-β-Gal in assays performed as in Figure 3C. (D) Levels of spliced and unspliced XBP1 mRNA monitored by qPCR analysis in cells treated in the indicated conditions in presence or absence of SA and/or EX-527. The levels were normalized by internal controls and represented in each case related to the conditions in UVB irradiated cells in absence of SA and EX-527. Student T-test, *p<0.05, **p<0.01, ***p<0.001. (E) LC3-II protein levels in experiments like in (A). The levels of LC3-II are normalized by the loading control (tubulin) and represented related to the conditions in UVB irradiated cells in absence of SA and EX-527. Student T-test, *p<0.05. (F) Proposed Model for the effect of SA on senescence through SIRT1. Other possible unexplored connections between SA and senescence are indicated by blue broken lines.
# Protein levels were analyzed as previously described. Cells were directly lysed in 1x Laemmli Buffer (Bio-Rad, USA), incubated at 95° C and centrifuged. […]
# spliced-XBP1 = test: Spliced XBP1 mRNA (qPCR); settings: UVB-irradiated cells, SA treatment
# Procedure: Figure 5 (A) Western-blot of BiP proteins levels in UVB or non UVB irradiated cells treated with SA at the indicated concentrations in presence or absence of EX-527 1 μM. (B) Quantification of n=3 experiments as (A). The levels of BiP are normalized by the loading control (histone H3) and represented related to the conditions in UVB irradiated cells in absence of SA and EX-527. Student T-test, *p<0.05. (C) Percentage of SA-β-Gal in assays performed as in Figure 3C. (D) Levels of spliced and unspliced XBP1 mRNA monitored by qPCR analysis in cells treated in the indicated conditions in presence or absence of SA and/or EX-527. The levels were normalized by internal controls and represented in each case related to the conditions in UVB irradiated cells in absence of SA and EX-527. […]
# RNA was extracted from cell pellets using the Total RNA Purification Kit (Norgen, Canada), according to the manufacturer’s protocol. Extracted RNA was quantified using a NanoDrop® ND-1000 UV-Vis Spectrophotometer (Thermo Fisher Scientific, USA) and 300 ng of RNA were retrotranscribed to cDNA using the PrimeScriptTM RT reagent kit (Takara Bio Inc., Japan). cDNA was diluted 1/10 in ultrapure water and qPCR mix was prepared by adding cDNA (12 ng), SYBR green supermix (Bio Rad, USA), forward and reverse primers (0.2μM). […] The results were analyzed with Bio-Rad CFX Manager software. […]
# SIRT1 = SIRT1 mRNA and protein levels in HDF; settings: Shikimic acid 5, 10, 25, 50 mM, 24h
# Procedure: RNA was extracted from cell pellets using the Total RNA Purification Kit (Norgen, Canada), according to the manufacturer’s protocol. Extracted RNA was quantified using a NanoDrop® ND-1000 UV-Vis Spectrophotometer (Thermo Fisher Scientific, USA) and 300 ng of RNA were retrotranscribed to cDNA using the PrimeScriptTM RT reagent kit (Takara Bio Inc., Japan). cDNA was diluted 1/10 in ultrapure water and qPCR mix was prepared by adding cDNA (12 ng), SYBR green supermix (Bio Rad, USA), forward and reverse primers (0.2μM). The primers and their respective sequences are listed in Supplementary Table 1. qPCR protocol included one step at 95° C for 30 s, 40 cycles at 95° C for 10s, and 60° C for 1min. The results were analyzed with Bio-Rad CFX Manager software. BACT was used as a housekeeping gene to normalize gene expression.
# as §1
# Student T-test, *p<0.05, **p<0.01, ***p<0.001.
# (1 picture or pasted object on this page, not shown here)
# [2] = system: H4K16ac (the target of SIRT1 and SIRT2); test: Sirtuin activity assay in HDF: H4K16ac levels (Western blot); settings: UV conditions, -/+25mM SA -/+1μM EX-527
smiles,measurement,setting,value
O=C(O)C1=C[C@@H](O)[C@@H](O)[C@H](O)C1 [Shikimic acid],effect on H3K9ac levels,[1],induced a similar effect on both targets
same,frequency of polyploidies,HDF cells; UVB irradiation,did not alter the accumulation of DNA damage or the frequency of polyploidies
same,cells in S-phase,HDF cells; UVB-irradiated HDF,progressive increase in the number of cells in S-phase
same,cell cycle,HDF cells; absence of UVB irradiation,did not alter the cell cycle
same,BiP protein levels,chaperone BiP,induced upregulation of chaperone BiP
same,spliced XBP1 mRNA levels,spliced-XBP1,induced a decrease in spliced-XBP1
same,SIRT1 gene expression and protein levels,SIRT1,did not observe any significant correlation with gene expression and protein levels
same,H4K16ac/H4 levels under UV-induced senescence,[2],induced increased deacetylation of H3K9ac and H4K16ac
